{"source": "paper PMC10349922", "about": "(Bioconjugate chemistry, 2023)", "target": "human Galectin-3 (Gal-3); His-Galectin-3 (Homo sapiens, UniProt P17931)", "sequence (P17931 2-250)": "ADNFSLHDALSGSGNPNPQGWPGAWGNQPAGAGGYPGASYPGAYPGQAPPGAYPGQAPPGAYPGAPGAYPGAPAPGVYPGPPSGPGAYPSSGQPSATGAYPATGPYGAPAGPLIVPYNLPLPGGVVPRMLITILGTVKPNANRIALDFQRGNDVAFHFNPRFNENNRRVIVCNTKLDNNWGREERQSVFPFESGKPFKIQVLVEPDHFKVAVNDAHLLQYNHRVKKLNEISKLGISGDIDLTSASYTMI", "assay": "competitive enzyme-linked lectin assay", "type": "binding", "settings": "His-Galectin-3 vs S0G2-BSA coated plate, PBS, r.t."}
{"smiles": "CC(=O)N[C@@H]1[C@@H](O)[C@H](O[C@@H]2O[C@H](CO)[C@@H](O[C@@H]3O[C@H](CO[C@H]4O[C@H](CO)[C@@H](O)[C@H](O)[C@@H]4O[C@@H]4O[C@H](CO)[C@@H](O[C@@H]5O[C@H](CO)[C@H](O)[C@H](O)[C@H]5O)[C@H](O)[C@H]4NC(C)=O)[C@@H](O)[C@H](O[C@H]4O[C@H](CO)[C@@H](O)[C@H](O)[C@@H]4O[C@@H]4O[C@H](CO)[C@@H](O[C@@H]5O[C@H](CO)[C@H](O)[C@H](O)[C@H]5O)[C@H](O)[C@H]4NC(C)=O)[C@@H]3O)[C@H](O)[C@H]2NC(C)=O)[C@@H](CO)O[C@H]1NC(=O)C[C@H](N)C(=O)O", "note": "[compound 1, S0G2-Asn]", "values": [{"measurement": "IC50", "value": 7.8, "unit": "µM"}]}
